Data set [1] concerns Mus musculus. As to the kind of experiment: Anxiolytic activity in Albino mouse assessed as increase in motor activity by measuring increase in number of square crossing at […], po administered through intragastric tube measured after 40 mins by open field test. It is filed as functional, organism-based.
The test system of data set [2] is Mus musculus. In words: Anxiolytic activity in Albino mouse assessed as increase in number of central zone crossing at […], po administered through intragastric tube measured after 40 mins by elevated plus maze test. It is filed as functional, organism-based.
Data set [3] concerns Mus musculus. As to the kind of experiment: Effect on memory formation in Albino mouse assessed as memory of negative experience by measuring dark room entry at […], po administered through intragastric tube measured after 7 days by conditioned avoidance test. It is filed as functional, organism-based. As to conditions: time 7.0 day.
Data set [4] deals with Mus musculus. In words: Anxiolytic activity in Albino mouse assessed as increase in number of open arm entries at […], po administered through intragastric tube measured after 40 mins by elevated plus maze test. It is filed as functional, organism-based.
Data set [5] has as its system Mus musculus. In words: Anxiolytic activity in Albino mouse assessed as rapid open arm entry at […], po administered through intragastric tube measured after 40 mins by elevated plus maze test. It is filed as functional, organism-based.
In data set [6] the test system is Mus musculus. As to the kind of experiment: Anxiolytic activity in Albino mouse assessed as increase in time spent in open arm entries at […], po administered through intragastric tube measured after 40 mins by elevated plus maze test. It is filed as functional, organism-based.
The subject of data set [7] is Mus musculus. As to the kind of experiment: Antidepressant activity in Albino mouse with social depression assessed as increase in time of interaction with partner mouse at […], po administered through intragastric tube measured after 40 mins by social interaction test. It is filed as functional, organism-based.
The test system of data set [8] is Mus musculus. As to the kind of experiment: Antidepressant activity in Albino mouse with social depression assessed as increase in interaction frequency with partner mouse at […], po administered through intragastric tube measured after 40 mins by social interaction test. It is filed as functional, organism-based.
In data set [9] the test system is Mus musculus. In words: Nootropic activity in Albino mouse assessed as quick escape from restricting factor in aversive environment at […], po administered through intragastric tube measured after 7 days by conditioned avoidance test. It is filed as functional, organism-based. As to conditions: time 7.0 day.
Data set [10] can be described thus: Toxicity in po dosed female Albino mouse. It is filed as organism-based. As to conditions: in vivo.

As a reminder, the LD50 is the dose expected to kill half of the subjects tested.

Several values for one entry are separate records, joined by “and”; a condition that tells them apart may be missing. Equal values may be shown once. Activity calls are given as the source filed them. The rule behind the calls is not given here.

For the compound `CSCCc1c(O)nc(SCCN(C)C)[nH]c1=O`, the result in the data set on Mus musculus [1] and in the data set on Mus musculus [3] was inactive. Also, the result with Mus musculus [2] and with Mus musculus [4] was Active.

Take `CSCCc1c(O)nc(SCCN2CCCC2)[nH]c1=O`: the result in the data set on Mus musculus [5], in the data set with Mus musculus [6], in the data set with Mus musculus [2] and with Mus musculus [4] was Active. Also, the result in the data set on Mus musculus [1] and with Mus musculus [3] was inactive.

As for `CCCC(C)c1c(O)nc(SCCN(CC)CC)[nH]c1=O.Cl` (stereo unspecified), the result with Mus musculus [7], in the data set with Mus musculus [5], with Mus musculus [8], in the data set on Mus musculus [6], with Mus musculus [2] and in the data set on Mus musculus [4] was Active. The outcome with Mus musculus [3] and in the data set on Mus musculus [9] was inactive. Further, the LD50 in [10] (female, Albino, read-out: LD50) was 1840 mg/kg and 5720 µmol/kg.

Turning to `CCN(CC)CCSc1nc(O)c(CCC(C)C)c(=O)[nH]1`, the outcome with Mus musculus [5] and in the data set with Mus musculus [3] was inactive. In addition, in the data set on Mus musculus [1], the result was Active.

Take `CC(C)CCc1c(O)nc(SCCN2CCCCC2)[nH]c1=O`: the outcome in the data set on Mus musculus [5] and in the data set with Mus musculus [3] was inactive. For the same compound, the outcome in the data set on Mus musculus [9] was Active.

As for `CC(C)c1c(O)nc(SCCN2CCCC2)[nH]c1=O.Cl`, the outcome in the data set with Mus musculus [1] was Active. Further, the outcome in the data set on Mus musculus [3] was inactive. The LD50 in data set [10] (po) is 544 mg kg-1 and 1563 umol/Kg.

For the compound `CCN(CC)CCSc1nc(O)c(CCSC)c(=O)[nH]1`, the outcome in the data set on Mus musculus [5] and in the data set with Mus musculus [3] was inactive. For the same compound, the result in the data set with Mus musculus [1] and with Mus musculus [9] was Active.

For `CSCCSc1nc(O)c(C(C)C)c(=O)[nH]1`, the result in the data set with Mus musculus [5], in the data set on Mus musculus [1], in the data set with Mus musculus [2], in the data set with Mus musculus [3] and in the data set with Mus musculus [4] was Active. Moreover, the result with Mus musculus [9] was inactive.

On to `CC(C)c1c(O)nc(SCCN2CCCCC2)[nH]c1=O`, for which the result with Mus musculus [5], with Mus musculus [6], in the data set with Mus musculus [2], in the data set with Mus musculus [3] and in the data set on Mus musculus [4] was Active.

Regarding `CCCC(C)c1c(O)nc(SCCN2CCCC2)[nH]c1=O` (stereo unspecified), the outcome in the data set with Mus musculus [6], in the data set with Mus musculus [2] and in the data set on Mus musculus [4] was Active. Also, the outcome in the data set with Mus musculus [1] and with Mus musculus [3] was inactive.

For the compound `CCN(CC)CCSc1nc(O)c(C(C)C)c(O)n1`, the outcome in the data set on Mus musculus [5], in the data set on Mus musculus [6] and with Mus musculus [3] was Active.

On to `CCCC(C)c1c(O)nc(SCCN2CCCCC2)[nH]c1=O` (stereo unspecified), for which the outcome in the data set on Mus musculus [5] and in the data set with Mus musculus [3] was inactive. For the same compound, in the data set with Mus musculus [4], the result was Active.

Regarding `CC(C)c1c(O)nc(N2CCSCC2)[nH]c1=O`, the result in the data set on Mus musculus [5], in the data set on Mus musculus [6], in the data set with Mus musculus [2], in the data set on Mus musculus [9] and in the data set on Mus musculus [4] was Active. Further, the outcome in the data set on Mus musculus [3] was inactive.

As to `CC(C)c1c(O)nc(SCCN(C)C)nc1O`, the outcome with Mus musculus [5], in the data set on Mus musculus [6], in the data set on Mus musculus [2], in the data set on Mus musculus [3] and with Mus musculus [4] was Active. The result in the data set with Mus musculus [9] was inactive.

As to `CC(C)CCc1c(O)nc(SCCN(C)C)[nH]c1=O`, the result with Mus musculus [3] and with Mus musculus [9] was inactive.

Turning to `CCCC(C)c1c(O)nc(SCCN(C)C)[nH]c1=O` (stereo unspecified), the result with Mus musculus [5], with Mus musculus [6], in the data set with Mus musculus [1], with Mus musculus [2], in the data set on Mus musculus [9] and in the data set on Mus musculus [4] was Active. Further, the outcome in the data set on Mus musculus [3] was inactive.

Regarding `CC(C)CCc1c(O)nc(SCCN2CCCC2)[nH]c1=O`, the outcome with Mus musculus [5] and in the data set with Mus musculus [3] was inactive.

As to `CSCCc1c(O)nc(SCCN2CCCCC2)[nH]c1=O`, the result in the data set on Mus musculus [2] and in the data set with Mus musculus [4] was Active. In addition, the outcome in the data set on Mus musculus [3] and in the data set on Mus musculus [9] was inactive.

The values are drawn from ChEMBL document CHEMBL5344408, “Pyrimidine thioethers: A novel class of antidepressant agents, endowed with anxiolytic, performance enhancing and nootropic activity” (Eur J Med Chem, 2023).
